These results are taken from patent US20250268909A1, “Combination Therapy” (US Oncology Corporate, Inc., priority 2022, published 2025).

The target of series [1] is Pgp (Homo sapiens, UniProt P08183). Conditions: cell culture model; cited from earlier work.
In series [2] the test system is breast cancer xenograft models. Conditions: alisertib added to either paclitaxel or docetaxel; cited from earlier work.
Series [3] can be described thus: phase II trial, dose modifications in ER+/ERBB2-negative cohort (safety population). It is filed as in vivo, human. Conditions: Arm 1 (paclitaxel plus alisertib), n=66. The protocol: Administration of 5 μg/kg filgrastim was allowed for treatment-limiting neutropenia, and loperamide was used to treat diarrhea but was not allowed prophylactically in cycle 1.
Incidence and grades of AEs for all patients were analyzed using the safety population which included all patients (eligible and ineligible) who received at least 1 dose of study drug. Toxic effects were reported and tabulated by numbers and frequencies for all related AEs. SAS statistical software version 9.4 (SAS Institute) was used for all data analysis. Data were analyzed from March through May 2019.

Sequence of Pgp (P08183 whole entry): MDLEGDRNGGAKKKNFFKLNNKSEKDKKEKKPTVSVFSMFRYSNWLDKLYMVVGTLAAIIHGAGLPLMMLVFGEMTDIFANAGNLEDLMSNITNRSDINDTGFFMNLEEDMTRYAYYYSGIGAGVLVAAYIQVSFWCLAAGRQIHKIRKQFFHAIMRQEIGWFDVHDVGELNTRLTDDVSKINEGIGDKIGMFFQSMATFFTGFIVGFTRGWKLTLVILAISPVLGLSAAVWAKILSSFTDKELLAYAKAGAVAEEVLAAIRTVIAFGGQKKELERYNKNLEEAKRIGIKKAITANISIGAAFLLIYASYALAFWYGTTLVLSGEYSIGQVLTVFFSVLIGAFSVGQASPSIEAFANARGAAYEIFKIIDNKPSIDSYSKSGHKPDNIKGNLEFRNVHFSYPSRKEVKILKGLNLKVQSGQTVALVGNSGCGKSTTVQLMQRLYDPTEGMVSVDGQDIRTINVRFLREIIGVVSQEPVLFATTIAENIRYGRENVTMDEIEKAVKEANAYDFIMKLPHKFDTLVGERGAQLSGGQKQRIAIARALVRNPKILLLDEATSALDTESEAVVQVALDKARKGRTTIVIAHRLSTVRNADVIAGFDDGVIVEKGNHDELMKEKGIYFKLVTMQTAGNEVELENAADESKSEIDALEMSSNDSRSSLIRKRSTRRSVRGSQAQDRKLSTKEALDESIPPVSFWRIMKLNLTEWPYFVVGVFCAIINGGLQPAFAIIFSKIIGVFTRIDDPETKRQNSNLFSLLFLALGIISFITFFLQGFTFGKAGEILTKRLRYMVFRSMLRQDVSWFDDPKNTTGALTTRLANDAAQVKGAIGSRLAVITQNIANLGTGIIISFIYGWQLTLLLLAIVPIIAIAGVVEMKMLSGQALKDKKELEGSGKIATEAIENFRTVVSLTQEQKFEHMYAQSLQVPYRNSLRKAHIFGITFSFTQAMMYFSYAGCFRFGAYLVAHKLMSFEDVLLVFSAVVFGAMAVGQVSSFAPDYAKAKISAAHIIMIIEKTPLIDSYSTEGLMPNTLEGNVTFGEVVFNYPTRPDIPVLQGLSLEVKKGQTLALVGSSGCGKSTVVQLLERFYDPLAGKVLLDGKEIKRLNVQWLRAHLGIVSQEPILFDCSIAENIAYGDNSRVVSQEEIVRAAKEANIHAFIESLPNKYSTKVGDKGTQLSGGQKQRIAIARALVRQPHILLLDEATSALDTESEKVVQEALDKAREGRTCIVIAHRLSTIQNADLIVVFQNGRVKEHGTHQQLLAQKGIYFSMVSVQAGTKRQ

On to `COc1cc(Nc2ncc3c(n2)-c2ccc(Cl)cc2C(c2c(F)cccc2OC)=NC3)ccc1C(=O)O` [Alisertib, 4-{[9-chloro-7-(2-fluoro-6-methoxyphenyl)-5H-pyrimido[5,4-d][2]benzazepin-2-yl]amino}-2-methoxybenzoic acid], for which the “Pgp-mediated efflux of paclitaxel” value in series [1] was “inhibited Pgp-mediated efflux of paclitaxel”. Also, in series [2], the “effect of combination in breast cancer xenograft models” value is listed as “Synergistic or additive effects”. For the same molecule, in series [3], the “Patients with both dose delay and reduction” value is “(62.1) %”; the “Patients with dose delay alone” value is recorded as “(18.2) %”; the “Patients with dose discontinuation” value is given as “(30.3) %”; the “Patients with dose increased” value is on record as “(1.5) %”. Further, the “Patients with dose reduction alone” value in series [3] was “(7.6) %”. Moreover, the “Patients with both dose delay and reduction” value in series [3] (listed as alisertib) is listed as 62.1%.
